# US20200016136A1 (VIIV HEALTHCARE UK (NO. 5) LIMITED, priority 2017, published 2020)
# Tested on: NL-RLuc virus (recombinant NL4-3 HIV with Renilla Luciferase gene)
# Test: Inhibition of HIV replication (NL-RLuc virus in MT-2 cells, luciferase readout)
# Assay type: cell-based, Human immunodeficiency virus (HIV)
# Settings: MT2, 120 h
# Source text: Inhibition of HIV Replication:
# A recombinant NL-RLuc proviral clone was constructed in which a section of the nef gene form NL4-3 was replaced with the Renilla Luciferase gene. This virus is fully infectious and can undergo multiple cycles of replication in cell culture. In addition, the luciferous reporter provides a simple and easy method for quantitating the extent of virus growth and consequently, the antiviral activity of test compounds. The plasmid pNLRLuc contains the proviral NL-Rluc DNA cloned into pUC18 at the PvuII site. The NL-RLuc virus was prepared by transfection of 293T cells with the plasmid pNLRLuc. Transfections were performed using the LipofectAMINE PLUS kit form Invitrogen (Carlsbad, Calif.) according to the manufacturer and the virus generated was titered in MT-2 cells. For susceptibility analyses, the titrated virus was used to infect MT-2 cells in the presence of compound, and after 5 days of incubation, cells were processed and quantitated for virus growth by the amount of expressed luciferase. Assay media was RPMI 1640 supplemented with 10% heat inactivated fetal bovine serum (FBS), 100 units/ml penicillin G/100 units/ml streptomycin, 10 mM HEPES buffer pH 7.55 and 2 mM L-glutamine. The results form at least 2 experiments were used to calculate the EC50 values. Luciferase was quantitated using the Dual Luciferase kit form Promega (Madison, Wis.). Susceptibility of viruses to compounds was determined by incubation in the presence of serial dilutions of the compound. The 50% effective concentration (EC50) was calculated by using the exponential form of the median effect equation where (Fa)=1/[1+(ED50/drug conc.)^m](Johnson V A, Byington R T. Infectivity Assay. In Techniques in HIV Research. ed. Aldovini A, Walker B D. 71-76. New York: Stockton Press. 1990).
row,SMILES,EC50
1,"CC1(C)CCN(c2c(-c3ccc4c(c3)CCN(c3nccc(N5CCOCC5)n3)C4)c(CO)nc(Cl)c2[C@H](OC(C)(C)C)C(=O)O)CC1 [Example 151, (S)-2-(tert-Butoxy)-2-(2-chloro-4-(4,4-dimethylpiperidin-1-yl)-6-(hydroxymethyl)-5-(2-(4-morpholinopyrimidin-2-yl)-1,2,3,4-tetrahydroisoquinolin-6-yl)pyridin-3-yl)acetic Acid]",2 nM
2,"Cc1nc(NCCCN2CCCCC2)c(-c2ccc3c(c2)CCN(c2ncnc4c2oc2ccccc24)C3)c(N2CCC(C)(C)CC2)c1[C@H](OC(C)(C)C)C(=O)O [Example 15, (S)-2-(5-(2-(Benzofuro[3,2-d]pyrimidin-4-yl)-1,2,3,4-tetrahydroisoquinolin-6-yl)-4-(4,4-dimethylpiperidin-1-yl)-2-methyl-6-((3-(piperidin-1-yl)propyl)amino)pyridin-3-yl)-2-(tert-butoxy)acetic Acid]",2 nM
3,"Cc1cccc(Cl)c1CN1CCc2cc(-c3c(CNCCCc4ccccc4)nc(C)c([C@H](OC(C)(C)C)C(=O)O)c3N3CCC(C)(C)CC3)ccc2C1 [Example 154, (S)-2-(tert-Butoxy)-2-(5-(2-(2-chloro-6-methylbenzyl)-1,2,3,4-tetrahydroisoquinolin-6-yl)-4-(4,4-dimethylpiperidin-1-yl)-2-methyl-6-(((3-phenylpropyl)amino)methyl)pyridin-3-yl)acetic Acid]",97 nM
4,"Cc1ncc(-c2ccc3c(c2)CCN(c2ncnc4c2oc2ccccc24)C3)c(N2CCC(C)(C)CC2)c1[C@H](OC(C)(C)C)C(=O)O [Example 49, (2S)-2-(tert-Butoxy)-2-[4-(4,4-dimethylpiperidin-1-yl)-2-methyl-5-(2-{8-oxa-3,5-diazatricyclo[7.4.0.0^2,7]trideca-1(9),2(7),3,5,10,12-hexaen-6-yl}-1,2,3,4-tetrahydroisoquinolin-6-yl)pyridin-3-yl]acetic Acid]",1 nM
5,"Cc1nc(C)c([C@H](OC(C)(C)C)C(=O)O)c(N2CCC(C)(C)CC2)c1-c1ccc2c(c1)CCN(c1nccc(N3C4CCCC3COC4)n1)C2 [Example 35, (2S)-2-(tert-Butoxy)-2-[4-(4,4-dimethylpiperidin-1-yl)-2,6-dimethyl-5-[2-(4-{3-oxa-9-azabicyclo[3.3.1]nonan-9-yl}pyrimidin-2-yl)-1,2,3,4-tetrahydroisoquinolin-6-yl]pyridin-3-yl]acetic Acid]",3 nM
6,"CC1(C)CCN(c2c(-c3ccc4c(c3)CCN(c3ncnc5c3oc3ccccc35)C4)c(CNCCS(C)(=O)=O)nc(Cl)c2[C@H](OC(C)(C)C)C(=O)O)CC1 [Example 110, (S)-2-(5-(2-(Benzofuro[3,2-d]pyrimidin-4-yl)-1,2,3,4-tetrahydroisoquinolin-6-yl)-2-chloro-4-(4,4-dimethylpiperidin-1-yl)-6-(((2-(methylsulfonyl)ethyl)amino)methyl)pyridin-3-yl)-2-(tert-butoxy)acetic Acid]",110 nM
7,"Cc1nc(C)c([C@H](OC(C)(C)C)C(=O)O)c(N2CCC(C)(C)CC2)c1-c1ccc2c(c1)CCN(c1ccc(C(F)(F)F)cn1)C2 [Example 143, (S)-2-(tert-butoxy)-2-(4-(4,4-dimethylpiperidin-1-yl)-2,6-dimethyl-5-(2-(5-(trifluoromethyl)pyridin-2-yl)-1,2,3,4-tetrahydroisoquinolin-6-yl)pyridin-3-yl)acetic Acid]",14 nM
8,"Cc1nc(C)c([C@H](OC(C)(C)C)C(=O)O)c(N2CCC(C)(C)CC2)c1-c1ccc2c(c1)CCN(c1ncnc(N3CCOCC3)c1C)C2 [Example 77, (S)-2-(tert-Butoxy)-2-(4-(4,4-dimethylpiperidin-1-yl)-2,6-dimethyl-5-(2-(5-methyl-6-morpholinopyrimidin-4-yl)-1,2,3,4-tetrahydroisoquinolin-6-yl)pyridin-3-yl)acetic Acid]",0.6 nM
